# Measurements as given in the supplement of paper PMC10307832.
# Legend:
# Assay in all cases: relative viability (nuclei count vs DMSO), 5 days (fraction); higher = more cells survive
# [1] = compound: CC(C)C[C@H](NC(=O)[C@H](CCc1ccccc1)NC(=O)CN1CCOCC1)C(=O)N[C@@H](Cc1ccccc1)C(=O)N[C@@H](CC(C)C)C(=O)[C@@]1(C)CO1 [Carfilzomib] + Cc1nc(Nc2ncc(C(=O)Nc3c(C)cccc3Cl)s2)cc(N2CCN(CCO)CC2)n1 [Dasatinib] (partner 0.075 µM)
# Procedure, shortened: (§1)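 Relative viability equals treated-well nuclei counts divided by vehicle-well nuclei counts. Counts came from 4× images of lung cancer cell lines grown in 1536-well plates for 5 days after pin-tool dosing on the day after seeding. Dosing used one drug alone or a fixed anchor-drug dose plus five library-drug doses (not always all listed) in √10 steps, and values are medians of duplicate plates.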
# [2] = compound: CC(C)C[C@H](NC(=O)[C@H](CCc1ccccc1)NC(=O)CN1CCOCC1)C(=O)N[C@@H](Cc1ccccc1)C(=O)N[C@@H](CC(C)C)C(=O)[C@@]1(C)CO1 [Carfilzomib] + O=C(CCCCCCC(=O)Nc1ccccc1)NO [Vorinostat] (partner 1 µM)
# Procedure, shortened: as §1
# [3] = compound: O=C(c1cc(Cc2n[nH]c(=O)c3ccccc23)ccc1F)N1CCN(C(=O)C2CC2)CC1 [Olaparib] + NC(=O)Nc1cc(-c2cccc(F)c2)sc1C(=O)N[C@H]1CCCNC1 [AZD7762] (partner 0.2 µM)
# Procedure, shortened: as §1
# [4] = compound: O=C(c1cc(Cc2n[nH]c(=O)c3ccccc23)ccc1F)N1CCN(C(=O)C2CC2)CC1 [Olaparib] + O=C(CCCCCCC(=O)Nc1ccccc1)NO [Vorinostat] (partner 1 µM)
# Procedure, shortened: as §1
Cell Line,relative viability ([1]; first compound 0.001 µM),relative viability ([1]; first compound 0.003162 µM),relative viability ([1]; first compound 0.01 µM),relative viability ([1]; first compound 0.03162 µM),relative viability ([1]; first compound 0.1 µM),relative viability ([2]; first compound 0.001 µM),relative viability ([2]; first compound 0.003162 µM),relative viability ([2]; first compound 0.01 µM),relative viability ([2]; first compound 0.03162 µM),relative viability ([2]; first compound 0.1 µM),relative viability ([3]; first compound 0.08 µM),relative viability ([3]; first compound 0.253 µM),relative viability ([3]; first compound 8 µM),relative viability ([4]; first compound 0.08 µM),relative viability ([4]; first compound 0.253 µM),relative viability ([4]; first compound 2.53 µM),relative viability ([4]; first compound 8 µM),relative viability ([3]; first compound 2.53 µM)
LCLC-97TM1,0.776,0.89,0.837,0.774,0.397,0.705,1.03,0.346,0.0531,0.0462,0.294,0.202,0.168,1.08,0.63,0.615,0.599,
LCLC-103H,0.343,0.503,0.518,0.362,0.299,0.809,0.941,0.772,0.497,0.218,0.916,0.773,0.56,0.936,0.762,0.801,0.678,0.727
LK-2,0.299,0.349,0.229,0.154,0.17,0.257,0.345,0.177,0.189,0.175,0.351,0.394,0.471,0.391,0.341,0.345,0.268,0.348
LOU-NH91,0.523,0.618,0.564,0.273,0.281,1.03,1.03,0.443,0.302,0.328,0.838,0.739,0.761,1.17,0.904,0.939,0.983,0.789
LU99A,0.533,0.688,0.512,0.278,0.152,0.467,0.649,0.404,0.225,0.167,0.337,0.213,0.125,0.463,0.397,0.353,0.23,0.204
LXF-289,0.151,0.312,0.192,0.0373,0.0553,0.747,0.795,0.738,0.0661,0.101,1.27,1.02,1.17,0.81,0.731,0.807,0.722,1.28
NCI-H23,0.811,0.748,0.845,0.158,0.125,0.506,0.656,0.195,0.118,0.0962,0.3,0.269,0.147,0.957,0.542,0.434,0.256,0.269
NCI-H322M,0.272,0.264,0.255,0.271,0.232,0.796,0.898,0.952,0.788,0.38,0.724,0.608,0.496,1.01,0.854,0.942,0.831,0.521
NCI-H358,0.171,0.152,0.2,0.0675,0.0836,0.69,0.692,0.515,0.0656,0.0773,0.574,0.522,0.382,0.697,0.613,0.634,0.551,0.495
NCI-H441,0.66,0.629,0.376,0.156,0.176,0.777,0.683,0.546,0.129,0.141,1.16,1.03,0.446,0.808,0.696,0.673,0.607,1
NCI-H460,0.539,0.529,0.568,0.538,0.0417,0.743,0.661,0.68,0.093,0.0182,0.595,0.513,0.126,0.778,0.58,0.378,0.0953,0.357
NCI-H522,0.872,0.946,0.885,0.398,0.433,0.888,1.01,0.841,0.426,0.412,0.974,0.896,0.705,1.04,0.812,0.797,0.758,0.809
NCI-H596,0.607,0.583,0.52,0.381,0.174,0.585,0.612,0.448,0.173,0.159,1.19,0.981,0.703,0.696,0.529,0.551,0.397,1.04
NCI-H647,0.198,0.21,0.149,0.0266,0.0232,0.69,0.483,0.137,0.0309,0.0228,0.508,0.379,0.156,0.585,0.504,0.6,0.271,0.343
NCI-H650,,0.515,0.457,0.359,0.164,0.354,0.468,0.532,0.132,0.107,1.05,0.956,0.927,0.431,0.37,0.377,0.238,0.826
NCI-H727,0.386,0.333,0.491,0.216,0.174,0.999,1.14,1.45,1.01,0.651,0.509,0.706,0.676,1.19,1.08,0.983,0.981,0.626
NCI-H838,0.321,0.333,0.291,0.267,0.182,0.922,0.774,0.719,0.199,0.152,1.09,0.949,0.801,0.747,0.646,0.709,0.65,0.912
